Laboratory results taken from US20240415819A1, “MACROCYCLIC COMPOUNDS AS PROTEASOME SUBUNIT BETA TYPE-5 INHIBITORS” (Lead Discovery Center GmbH, priority 2021, published 2024).
pIC50: −log10 of the molar value.

Experiments:
[1] = target: T1, β5 subunit of the human immunoproteasome (IPS) (Homo sapiens, UniProt P28062); assay: β5 inhibition assay, human immunoproteasome (Suc-LLVY-AMC); format: biochemical; settings: IC50 class, Suc-LLVY-AMC substrate
T1 construct: purchased Boston Biochem E-370
Outline: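 Human immunoproteasome (1 nM final) was preincubated 10 min at RT with compound in 100 mM HEPES pH 7.5, 50 mM NaCl, 0.02% SDS, 1 mM DTT. Suc-LLVY-AMC (22.6 μM final) was then added for 4 h at RT in the dark. After stopping with 1 μM bortezomib, AMC fluorescence was read (ex 355/em 460 nm).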

hPMBC = assay: Chymotrypsin-like ProteasomeGlo assay in hPBMC; format: cell-based; settings: Homo sapiens; read-out: Pglo hPBMC
Outline: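 B cells isolated from human PBMC (buffy coats, density gradient, magnetic isolation). Cells treated with compound for 105 min at 37 °C, with staurosporine and DMSO included. Chymotrypsin-like proteasome activity read by luminescence with Suc-LLVY-Glo substrate to derive IC50.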

pIC50 [1]: > 7.00
pIC50 (hPMBC): > 7.00
Compound: Cc1ccc2cc1CNC(=O)[C@H](CCc1ccccc1)NC(=O)[C@@H](NC(=O)C1(N)COC1)CC(=O)N1CCCC(CCO2)C1 (stereo partly drawn) [Compound 158, 3-amino-N-((9S,12S)-5^4-methyl-8,11,14-trioxo-9-phenethyl-4-oxa-7,10-diaza-1(3,1)-piperidina-5(1,3)-benzenacyclotetradecaphane-12-yl)oxetane-3-carboxamide]
